Key:
[1] = target: T1, COX-2 (Homo sapiens, UniProt P35354); assay: Human whole blood assay, COX-2 inhibition (PGE2 after LPS); type: cell-based; details: LPS stimulated
T1 construct: Fresh blood was collected in tubes containing sodium heparin by vein puncture from healthy male volunteers; endogenous in cells; host or cells: human whole blood from healthy male volunteers, stimulated with LPS
T1 sequence (P35354 18-604): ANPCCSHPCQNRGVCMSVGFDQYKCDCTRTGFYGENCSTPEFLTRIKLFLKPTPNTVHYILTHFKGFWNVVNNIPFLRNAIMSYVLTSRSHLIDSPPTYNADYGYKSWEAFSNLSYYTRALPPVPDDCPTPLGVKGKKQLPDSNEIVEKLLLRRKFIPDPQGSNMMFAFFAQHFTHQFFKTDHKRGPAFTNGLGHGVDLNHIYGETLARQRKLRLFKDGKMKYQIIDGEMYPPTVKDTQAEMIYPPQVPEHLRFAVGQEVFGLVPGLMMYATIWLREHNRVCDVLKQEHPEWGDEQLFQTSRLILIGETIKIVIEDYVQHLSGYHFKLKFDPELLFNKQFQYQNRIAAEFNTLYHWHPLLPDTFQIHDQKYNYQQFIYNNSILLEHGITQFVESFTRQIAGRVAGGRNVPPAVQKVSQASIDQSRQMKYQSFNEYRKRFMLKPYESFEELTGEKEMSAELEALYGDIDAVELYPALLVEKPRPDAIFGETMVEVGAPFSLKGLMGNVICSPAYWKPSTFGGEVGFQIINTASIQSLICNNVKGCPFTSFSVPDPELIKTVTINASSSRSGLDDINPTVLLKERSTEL
Method: Human whole blood provides a protein and cell rich milieu appropriate for the study of biochemical efficacy of anti-inflammatory compounds such as selective COX-2 inhibitors. […] This is correlating with the observation that COX-2 inhibitors have no effect on prostaglandin E2 (PGE2) production in normal blood. These inhibitors were active only after incubation of human blood with lipopolysaccharide (LPS), which induces COX-2 production in the blood.
Fresh blood was collected in tubes containing sodium heparin by vein puncture from healthy male volunteers. […] Then test compounds (at various concentrations) or vehicle were added to blood. After that blood was stimulated with LPS B: 4 (10 μg/ml) and incubated for another 18 hours at 37° C. water bath. After which the blood was centrifuged, plasma was separated and stored at −80° C. (J. Pharmacol. Exp. Ther, 271, 1705, 1994; Proc. Natl. Acad. Sci. USA., 96, 7563, 1999). The plasma was assayed for PGE2 using Cayman ELISA kit as per the procedure outlined by the manufacturer (Cayman Chemicals, Ann Arbor, USA).

[2] = tested on: MCF-7; assay: Anti-cancer screen (MTT), MCF-7; type: cell-based
Method: [The source words this procedure for another cell line and reports this cell line under the same test.] (§1) Experimental drugs are screened for anti-cancer activity in three cell lines for their GI50, TGI and LC50 values (using five concentrations for each compound). The cell lines are maintained in DMEM containing 10% fetal bovine serum. 96 well microtiter plates are inoculated with cells in 100 μL for 24 h at 37° C., 5% CO2, 95% air and 100% relative humidity. 5000 HCT116 cells/well, 5000 NCIH460 cells/well, 10000 U251 cells/well and 5000 MDAMB231 cells/well are plated. A separate plate with these cell lines is also inoculated to determine cell viability before the addition of the compounds (T0).
(§2) Following 24 hours incubation, experimental drugs are added to the 96 well plates. Each plate contains one of the above cell lines and the following in triplicate: five different concentrations (0.01, 0.1, 1, 10 and 100 μM) of four different compounds, appropriate dilutions of a cytotoxic standard and control (untreated) wells. Compounds are dissolved in dimethylsulfoxide (DMSO) to make 20 mM stock solutions on the day of drug addition and frozen at −20° C. Serial dilutions of these 20 mM stock solutions are made in complete growth medium such that 100 μL of these drug solutions in medium, of final concentrations equaling 0.01, 0.1, 1, 10 and 100 μM can be added to the cells in triplicate. Standard drugs whose anti-cancer activity has been well documented and which are regularly used are doxorubicin and SAHA.
(§3) Cells are incubated with compounds for 48 hours followed by the addition of 10 μL 3-(4,5-Dimethyl-2-thiazolyl)-2,5-diphenyl-2H-tetrazolium (MTT) solution per well and a subsequent incubation at 37° C., 5% CO2, 95% air and 100% relative humidity, protected from light. After 4 hours, well contents are aspirated carefully followed by addition of 150 μL DMSO per well. Plates are agitated to ensure solution of the formazan crystals in dimethylsulphoxide and absorbance read at 570 nm.
(§4) Percent growth is calculated for each compound's concentration relative to the control and zero measurement wells (To; viability right before compound addition). […]

[3] = tested on: NCI-H460; assay: Anti-cancer screen (MTT), NCI-H460; type: cell-based
Method: as §1
Following 24 hours incubation, experimental drugs are added to the 96 well plates. […] Compounds are dissolved in dimethylsulfoxide (DMSO) to make 20 mM stock solutions on the day of drug addition and frozen at −20° C. […] Standard drugs whose anti-cancer activity has been well documented and which are regularly used are doxorubicin and SAHA.
as §3
Percent growth is calculated for each compound's concentration relative to the control and zero measurement wells (To; viability right before compound addition). If a test well's O.D. value is greater than the To measurement for that cell line % Growth=(test−zero)/(control−zero)×100
If a test well's O.D. value is lower than the T0 measurement for that cell line, […]

[4] = tested on: SF-268; assay: Anti-cancer screen (MTT), SF-268; type: cell-based
Method: [The source words this procedure for another cell line and reports this cell line under the same test.] as §1, §2, §3, §4

[5] = tested on: TNF-α; assay: In vitro measurement of TNF-α in human PBMC; type: cell-based; details: at 0.1 μM, LPS
Method: In Vitro Measurement of Tumor Necrosis Factor Alpha (TNF-α)
This assay determines the effect of test compounds on the production of TNF-α in human Peripheral Blood Mononuclear Cells (PBMC). Compounds were tested for their ability to inhibit the activity of TNF-α in human PBMC. PBMC were isolated from blood (from healthy volunteers) using BD Vacutainer CPT™ (Cell preparation tube, BD Bio Science) and suspended in RPMI medium (Physiol. Res. 52; 593-598, 2003). The test compounds were pre-incubated with PBMC (0.5 million/incubation well) for 15 minutes at 37° C. and then stimulated with Lipopolysaccharide (Escherichia coli: B4; 1 μg/ml) for 18 hours at 37° C. in 5% CO2. The levels of TNF-α in the cell culture medium were estimated using enzyme linked Immunosorbent assay performed in a 96 well format as per the procedure of the manufacturer (R&D Systems, Inc. 614 McKinley Place Nebr., Minneapolis, Minn. 55413, USA).

[6] = tested on: MDAMB-231; assay: Anti-cancer screen (MTT), MDAMB-231; type: cell-based; details: Homo sapiens, MDA-MB-231, 48 hours
Method: as §1
Following 24 hours incubation, experimental drugs are added to the 96 well plates. […]
Cells are incubated with compounds for 48 hours followed by the addition of 10 μL 3-(4,5-Dimethyl-2-thiazolyl)-2,5-diphenyl-2H-tetrazolium (MTT) solution per well and a subsequent incubation at 37° C., 5% CO2, 95% air and 100% relative humidity, protected from light. […] Plates are agitated to ensure solution of the formazan crystals in dimethylsulphoxide and absorbance read at 570 nm.
as §4

[7] = tested on: IL-1β; assay: In vitro measurement of IL-1β in human PBMC; type: cell-based; details: Conc. 0.1 μM, LPS
Method: (§5) In vitro Measurement of Interleukin-6 (IL-6) & Interleukin-1β (IL1β)
(§6) This assay determines the effect of test compounds on the production of IL-6 and IL1β in human PBMC (Physiol. Res. 52: 593-598, 2003). Compounds were tested for their ability to inhibit the activity of IL-6 and IL1β in human PBMC. PBMC were isolated from blood using BD Vacutainer CPT™ Cell preparation tube (BD Bio Science) and suspended in RPMI medium. The test compounds were preincubated with PBMC (0.5 million/incubation well) for 15 minutes at 37° C. and then stimulated with Lipopolysaccharide (Escherichia coli: B4; 1 μg/ml) for 18 hours at 37° C. in 5% CO2. The levels of IL-6 and IL1β in cell culture medium were estimated using enzyme linked Immunosorbent assay performed in a 96 well format as per the procedure of the manufacturer (R&D Systems, Inc. 614 McKinley Place Nebr., Minneapolis, Minn. 55413, USA).

[8] = tested on: IL-6; assay: In vitro measurement of IL-6 in human PBMC; type: cell-based; details: Conc. 0.1 μM, LPS
Method: as §5, §6

[9] = tested on: Carrageenan induced paw edema in rat; assay: Carrageenan induced paw edema test in rat; type: in vivo; details: 5 mg/kg oral; male wistar rats; 3 hours after carrageenan
Method: Carrageenan Induced Paw Edema Test in Rat
The carrageenan paw edema test was performed as described by Winter et al (Proc. Soc. Exp. Biol. Med, 111, 544, 1962). Male wistar rats were selected with body weights equivalent within each group. The rats were fasted for eighteen hours with free access to water. The rats were dosed orally with the test compound suspended in vehicle containing 0.25% carboxymethylcellulose and 0.5% Tween 80. The control rats were administered with vehicle alone. After an hour, the rats were injected with 0.1 ml of 1% Carrageenan solution in 0.9% saline into the sub-plantar surface of the right hind paw. Paw volume was measured using digital plethysmograph before and after 3 hours of carrageenan injection. The average of foot swelling in drug treated animals was compared with that of control animals. Anti-inflammatory activity was expressed as the percentage inhibition of edema compared with control group [Arzneim-Forsch/Drug Res., 43 (I), 1,44-50,1993; Otterness and Bliven, Laboratory Models for Testing NSAIDs, In Non-Steroidal Anti-Inflammatory Drugs, (J. Lombardino, ed. 1985)].

CNc1nc(-c2ccc(SC)cc2)nc(SC)c1C(=O)Nc1ccc(C)c(C)c1 [Example 9, N-(3,4-Dimethylphenyl)-4-(methylamino)-6-(methylthio)-2-[4-(methylthio)phenyl]pyrimidine-5-carboxamide] was tested, and the inhibition at 10 µM ([1]; Conc. 10 μM) was 29.2%, the “Percentage growth Breast MCF-7” value ([2]; Conc. 100 μM) was 6% and the “Percentage growth Lung NCI-H460” value ([3]; Conc. 100 μM) was 0%. For the same compound, the “Percentage growth CNS SF-268” value ([4]; Conc. 100 μM) was 5%.

In the case of CCc1ccc(NC(=O)c2c(NC)nc(-c3ccc(SC)cc3)nc2SC)cc1 [Example 8, N-(4-Ethylphenyl)-4-(methylamino)-6-(methylthio)-2-[4-(methylthio)phenyl]pyrimidine-5-carboxamide], the inhibition at 0.1 µM [5] is reported as 27.8%, the “Percentage growth Breast MCF-7” value ([2]; Conc. 100 μM) is reported as 4% and the “Percentage growth Lung NCI-H460” value ([3]; Conc. 100 μM) is reported as 0%. For the same compound, the “Percentage growth CNS SF-268” value ([4]; Conc. 100 μM) was 1%.

Work on CNc1nc(-c2ccncc2)nc(SC)c1C(=O)Nc1ccc(C)c(C)c1 [Example 25, N-(3,4-Dimethylphenyl)-4-(methylamino)-6-(methylthio)-2-pyridin-4-ylpyrimidine-5-carboxamide] yielded a GI50 ([3]; Homo sapiens, NCI-H460, 48 hours, MTT) of 5.5 µM and a GI50 [6] of 0.1 µM.

CNc1nc(-c2ccc(SC)cc2)nc(SC)c1C(=O)Nc1ccc(C)cc1 [Example 5, 4-(Methylamino)-N-(4-methylphenyl)-6-(methylthio)-2-[4-(methylthio)phenyl]pyrimidine-5-carboxamide] was tested, and the inhibition at 0.25 µM ([1]; Conc. 0.25 μM) was 36.8%, the “Percentage growth Breast MCF-7” value ([2]; Conc. 50 μM) was 160% and the “IL-1β Inhibition (%)” value [7] was “Not active”. The inhibition at 0.1 µM [8] was 14.9%, the “Inhibition of edema (%) at 5 mg/kg” value [9] was 53.07% and the “Percentage growth Lung NCI-H460” value ([3]; Conc. 50 μM) was 48%. The “Percentage growth CNS SF-268” value ([4]; Conc. 50 μM) was 106%.

— patent US7759350B2, “Pyrimidine carboxamides” (Orchid Research Laboratories Ltd., priority 2005, dated 2010)
